Experimental data from PMC5282883, “Droplet-based microfluidic high-throughput screening of heterologous enzymes secreted by the yeast Yarrowia lipolytica” (Microbial Cell Factories, 2017).

Experiments:
Assay in all cases: fluorogenic hydrolysis assay, crude supernatant
Assay type in all cases: biochemical
Conditions in all cases: 150 µM substrate, 50 mM acetate buffer pH 4.5, 25 °C
[1] = target: T1, endoglucanase A (Aspergillus niger, UniProt A2R322)
T1 construct: gene eglA; codon-optimised gene secreted by Yarrowia lipolytica strain JMY4343; crude supernatant; 26 kDa on SDS-PAGE

[2] = target: T2, endo-β-1,4-xylanase C (Aspergillus niger, UniProt A2QFV7)
T2 construct: gene xlnC; codon-optimised gene secreted by Yarrowia lipolytica strain JMY4510; crude supernatant

[3] = target: T3, endo-β-1,4-xylanase B (Aspergillus niger, UniProt A2Q7I0)
T3 construct: gene xlnB; codon-optimised gene secreted by Yarrowia lipolytica strain JMY4346; crude supernatant; 22 kDa on SDS-PAGE
T3 sequence (A2Q7I0 19-225): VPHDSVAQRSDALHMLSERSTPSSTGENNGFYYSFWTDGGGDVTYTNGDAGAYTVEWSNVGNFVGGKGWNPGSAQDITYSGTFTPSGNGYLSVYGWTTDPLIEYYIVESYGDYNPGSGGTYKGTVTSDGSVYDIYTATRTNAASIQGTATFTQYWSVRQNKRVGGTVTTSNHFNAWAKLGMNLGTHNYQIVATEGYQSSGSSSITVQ

T1 sequence (A2R322 17-239): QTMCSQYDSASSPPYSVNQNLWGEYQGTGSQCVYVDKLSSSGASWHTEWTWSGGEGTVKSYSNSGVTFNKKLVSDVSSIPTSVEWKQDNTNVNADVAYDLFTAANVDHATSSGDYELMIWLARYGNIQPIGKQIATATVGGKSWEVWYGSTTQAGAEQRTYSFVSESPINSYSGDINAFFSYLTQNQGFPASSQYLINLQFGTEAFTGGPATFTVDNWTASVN

Row | Structure (SMILES) | fluorogenic hydrolysis assay, crude supernatant [1] | fluorogenic hydrolysis assay, crude supernatant [2] | fluorogenic hydrolysis assay, crude supernatant [3]
1 | O=c1cc(CS(=O)(=O)O)c2cc(F)c(O[C@@H]3O[C@H](CO)[C@@H](O[C@@H]4O[C@H](CO)[C@@H](O)[C@H](O)[C@H]4O)[C@H](O)[C@H]3O)c(F)c2o1 [β-D-cellobioside-6,8-difluoro-7-hydroxycoumarin-4-methansulfonate] | JMY4343 (egla) displayed a low activity with this substrate | – | –
2 | O=c1cc(CS(=O)(=O)O)c2cc(F)c(O[C@@H]3OC[C@@H](O[C@@H]4OC[C@@H](O)[C@H](O)[C@H]4O)[C@H](O)[C@H]3O)c(F)c2o1 [β-D-xylobioside-6,8-difluoro-7-hydroxycoumarin-4-methansulfonate] | – | The JMY4346 (xlnb) and JMY4510 (xlnc) strains exhibited similar levels of endo-β-1,4-xylanase activity | The JMY4346 (xlnb) and JMY4510 (xlnc) strains exhibited similar levels of endo-β-1,4-xylanase activity
